Results as given in publication PMC9884808, “Pharmacokinetics, tissue distribution, and antitumor activity of a novel compound, NY-2, in non-small cell lung cancer” (Frontiers in Pharmacology, 2023).

Experiments:
T47D = experiment: MTT cell viability assay; format: cell-based, human; conditions: Homo sapiens, T47D breast cancer cells
Description: (§1) The human colorectal cancer cell lines, HCT116 and LoVo, the breast cancer cell line, T47D, the hepatocellular carcinoma cell line, HepG2, the normal human liver cell line, HL7702, human umbilical vein endothelial cells (HUVECs), and the non-small cell lung cancer cell lines, A549, H1993, HCC827, H460, were purchased from the American Type Culture Collection (Manassas, VA, United States). Cell lines were cultured in the recommended RPMI-1640 medium (AE24464298, Hyclone, United States) and DMEM medium (AE29422278, Hyclone, United States) supplemented with 10% fetal bovine serum (FBS; JC63470, FB15015, Clark, United States) with 1% penicillin-streptomycin. Cells were maintained in an incubator at 37°C with 5% CO2 (HF90,Sanyo, Japan) and passaged every 48–72 h, after detaching with 0.25% trypsin (Sigma, United States). The compounds ZLDI-8 and NY-1 to -15 were synthesized in the laboratory of Dr. Huaiwei Ding in Shenyang Pharmaceutical University, and verified by high-performance liquid chromatography (purity >95%) for use in experiments (Supplementary Figure S1). Paclitaxel was purchased from MedChemExpress (HY-B0015, 99.97% purity, United States).
(§2) Cell viability was measured by the MTT assay. HCT116, HL7702, A549, H1993, HCC827, and H460 cells were dispensed into 96-well plates at a density of 1 × 10^5 cells/mL. After 24–48 h incubation, cells were treated with the compounds at different concentrations for the indicated periods. An assay kit (WLA073, Wanlei Co., Liaoning, China), was used according to the manufacturer’s instructions to measure LDH activity, The absorbance at 450 nm was measured with a microplate reader (Elx-800, Bio-Rad, China).
(§3) The preliminary antitumor activity of the series of ZLDI-8 derivatives, NY-1 to -15 was screened by the MTT cell viability assay. […] The antitumor activity of NY-2 on HCT116 cells was concentration- and time-dependent, and slightly better than that of the original compound, ZLDI-8.

[1] = Tissue distribution in rats; format: in vivo, SD rats; conditions: for blood-brain barrier penetration: rat brain tissue concentration very low; for order of concentrations in tissues: 5 min after administration
Description: After fasting for 12 h, 32 SD rats were randomly divided into eight groups of four rats each. Four groups were injected with ZLDI-8 via tail vein (6 mg/kg) at 5 min, 12, 24, and 48 h. The other four groups were injected with NY-2 (6 mg/kg) at the same time points. The heart, liver, spleen, lung, kidney, brain, muscle, and intestines were collected after cervical dislocation at the specified time points and tissue samples were removed. Samples were rinsed with normal saline at 0°C to remove residual blood and debris, blotted dry with filter paper, weighed, and stored at ˗20°C until used.

LoVo = experiment: MTT cell viability assay; format: cell-based, human; conditions: Homo sapiens, LoVo colorectal cancer cells
Description: as §1, §2, §3

HepG2 = experiment: MTT cell viability assay; format: cell-based, human; conditions: Homo sapiens, HepG2 hepatocellular carcinoma cells
Description: as §1, §2, §3

H460 = experiment: MTT cytotoxicity assay, NSCLC cells; format: cell-based; conditions: Homo sapiens, NCI-H460, 48 h
Description: as §1, §2
(§4) First, the effects of NY-2 and ZLDI-8 on the survival rates of four NSCLC cell lines, A549, H1993, HCC827, H460, were compared by the MTT cytotoxicity assay. The various types of NSCLC cells were incubated with increasing concentrations of NY-2 and ZLDI-8 (1.25, 2.5, 5, 10, and 20 μM), and the cell viability at 48 h was measured. […] Considering that the culture time might be too long, NY-2 was selected for 48 h treatment at increasing concentrations of 2.5, 5.0, and 10 μM as the experimental conditions for subsequent in vitro experiments.

H1993 = experiment: MTT cytotoxicity assay, NSCLC cells; format: cell-based; conditions: Homo sapiens, NCI-H1993, 48 h
Description: as §1, §2, §4

HCC827 = experiment: MTT cytotoxicity assay, NSCLC cells; format: cell-based; conditions: Homo sapiens, 48 h
Description: as §1, §2, §4

A549 = experiment: MTT cytotoxicity assay, NSCLC cells; format: cell-based; conditions: Homo sapiens, 48 h
Description: as §1, §2, §4

Structure (SMILES)	IC50 (T47D) [µM]	blood-brain barrier penetration [1]	concentration in the brain ([1]; rat, tail vein 6 mg/kg)	tissue with the highest concentration ([1]; rat, tail vein 6 mg/kg)	order of concentrations in tissues ([1]; rat, tail vein 6 mg/kg)	IC50 (LoVo) [µM]	IC50 (HepG2) [µM]	IC50 (H460) [µM]	IC50 (H1993) [µM]	IC50 (HCC827) [µM]	IC50 (A549) [µM]
Cc1c(C=C2C(=O)NC(=S)NC2=O)c2ccccc2n1CCOc1ccc(F)cc1 [NY-2]	34.7	do not readily penetrate the blood-brain barrier	almost zero	highest in the lung	lung > liver > spleen > heart > kidney > intestines > brain > muscle	5.82	20	13.5 ± 0.58	4.78 ± 0.64	5.98 ± 0.75	8.95 ± 0.58
Cc1ccc(OCCn2c(C)c(C=C3C(=O)NC(=S)NC3=O)c3ccccc32)c(C)c1 [ZLDI-8, reference compound]	29.1	do not readily penetrate the blood-brain barrier	almost zero	–	lung > liver > spleen > heart > kidney > intestines > brain > muscle	9.65	22.9	25.2 ± 2	8.33 ± 1.01	9.39 ± 0.99	23.1 ± 2.27
